Assay results: PubChem BioAssay AID1189 (EPA DSSTox, 2008)
Activity calls are given as the source filed them.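 Rule for the calls: active = a tumor-causing dose value with its tumor site reported for any sex and species group of a rodent or other animal cancer study; inconclusive = only studies judged inadequate by the national testing program; inactive = tested in at least one study, none positive.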

Test: DSSTox (CPDBAS) Carcinogenic Potency Database Summary SingleCellCall Results
Settings: animal chronic carcinogenicity bioassays, CPDB summary call
Outline: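 Literature-derived summary: each substance receives an overall carcinogenic/non-carcinogenic category drawn from long-term bioassays in rats, mice, hamsters, dogs or primates, using the most positive sex-species experiment and minimal evidence criteria.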

Row | Compound | outcome
1 | O=Cc1ccco1 | active; inactive
2 | C=COC(N)=O | active; inactive
3 | Nc1cc([N+](=O)[O-])ccc1O | active
4 | Cn1cc(OCC(O)CNC(C)(C)C)c2ccccc2c1=O (stereo not drawn) | inactive; active
5 | O=C(O)c1ccc(N=Nc2ccc(O)c(C(=O)O)c2)cc1 | inactive
6 | CCCC[N+](=O)[O-] | inactive
7 | CC1=C(CC(=O)O)c2cc(F)ccc2/C1=C\c1ccc(S(C)(=O)=O)cc1 | inactive
8 | OCC(CO)N[C@H]1C[C@](O)(CO)[C@@H](O)[C@H](O)[C@H]1O | inactive
9 | [N-]=[N+]=[N-] | inactive; active
10 | CCNc1nc(Cl)nc(NC(C)(C)C#N)n1 | active
11 | O=C1c2ccccc2CN2C(=O)c3ccccc3CN12 | active
12 | O=[N+]([O-])c1ccc(-c2cscn2)o1 | active
13 | Cc1cccc2ccccc12 | inactive; active
14 | Cc1ccc(OP(=O)(Oc2ccc(C)cc2)Oc2ccc(C)cc2)cc1 | inactive
15 | CCN(N=O)C(=O)NCCO | active
16 | CC(=O)NNC(=O)c1ccncc1 | active
17 | C1CNCCN1 | inactive
18 | Cc1c(N)nc(C)c2c1[nH]c1ccccc12 | active
19 | C#CC(OC(N)=O)(c1ccccc1)c1ccc(Cl)cc1 (stereo not drawn) | active; inactive
20 | CC(=O)[O][Hg][c]1ccccc1 | inactive
21 | CCN(CC)C(=O)/C(Cl)=C(\C)OP(=O)(OC)OC | inactive
22 | [Cl-].[Cl-].[Sn+2] | inactive
23 | CCC(C(=O)NC(N)=O)c1ccccc1 (stereo not drawn) | inactive
24 | O=NN1CCOCC1 | active; inactive

Row | Compound | outcome
25 | O=C(O)c1ccncc1 | inactive
26 | C/C=C(\C)C(=O)O[C@@H]1CCN2CC=C(COC(=O)C(O)(C(C)C)C(C)O)[C@H]12 (stereo partly drawn) | active
27 | ClCc1ccccc1 | active
28 | CC(C)(Oc1ccc(C2CCCc3ccccc32)cc1)C(=O)O (stereo not drawn) | active; inactive
29 | Cc1ccccc1N=O | active
30 | c1ccncc1 | active
31 | CCCN(N=O)C(N)=O | active
32 | O=Cc1ccccc1 | active
33 | CC(=O)Nc1cccc2c1Cc1ccccc1-2 | inactive; active
34 | ClC1=C(Cl)C2(Cl)C3C(Cl)OC(Cl)C3C1(Cl)C2(Cl)Cl (stereo not drawn) | inactive
35 | ClC=C(Cl)Cl | active; inactive
36 | CCCCCCCCCCCCN(C)N=O | active
37 | CN(C)C(=S)[S][Bi]([S]C(=S)N(C)C)[S]C(=S)N(C)C | inactive
38 | Nc1ccc([N+](=O)[O-])cc1O | active
39 | [O-][Cl+]O | inactive; active
40 | CN(N=O)C(=O)NCCC[C@H](N)C(=O)O | active
41 | CCNC(=O)Nc1ncc([N+](=O)[O-])s1 | active
42 | N[C@@H](Cc1cnc[nH]1)C(=O)O | inactive
43 | CC1=CC(C)(C)N(N=O)c2ccccc21 | active
44 | C=CCOc1ccc(CC(=O)O)cc1Cl | inactive
45 | CCN(CC)C(=S)[S-].CCN(CC)C(=S)[S-].[Zn+2] | inactive
46 | CC(O)CN(C)c1ccc(NN)nn1 (stereo not drawn) | inactive
47 | ClC/C=C/CCl | active; inactive
48 | Cc1ccc([N+](=O)[O-])cc1 | active

Row | Compound | outcome
49 | [O-]/[N+](=N\O)c1ccccc1 | active; inactive
50 | Cc1c(N)cccc1N | inactive
51 | CC(Cl)CCl (stereo not drawn) | active; inactive
52 | c1ccc2c(c1)[nH]c1cnccc12 | inactive
53 | CCCCC(CC)CO (stereo not drawn) | active; inactive
54 | CC(=O)OC(OC(C)=O)c1ccc([N+](=O)[O-])o1 | inactive
55 | CC[C@H]1OC(=O)[C@H](C)[C@@H](O[C@H]2C[C@@](C)(OC)[C@@H](O)[C@H](C)O2)[C@H](C)[C@@H](O[C@@H]2O[C@H](C)C[C@H](N(C)C)[C@H]2O)[C@](C)(O)C[C@@H](C)C(=O)[C@H](C)[C@@H](O)[C@]1(C)O | inactive; active
56 | C=C(C)C | active
57 | C=C(C)C(=O)Nc1ccc(Cl)c(Cl)c1 | inactive
58 | CC(C)CN(N=O)C(=N)N[N+](=O)[O-] | inactive
59 | CCOC1=C(O)C(=O)O[C@@H]1[C@@H](O)CO | inactive
60 | CCN(C=O)CC | inactive; active
61 | NC(=O)OCC(COC(N)=O)c1ccccc1 | active; inactive
62 | ClC1C2(Cl)C3C4C5OC5C5C4C1(Cl)C(Cl)(C53)C2(Cl)Cl (stereo not drawn) | inactive
63 | C1CCNCC1 | inactive; active
64 | O=C(O[C@@H]1Cc2c(O)cc(O)cc2O[C@@H]1c1cc(O)c(O)c(O)c1)c1cc(O)c(O)c(O)c1 | inactive
65 | CCOP(=S)(OCC)Oc1cc(C)nc(C(C)C)n1 | inactive; active
66 | Nc1nnc(-c2ccc([N+](=O)[O-])o2)s1 | active
67 | CCC(C)[N+](=O)[O-] (stereo not drawn) | active
68 | Cc1cccc(N=Nc2ccc(N(C)C)cc2)c1 | active
69 | CCCCN(CCCCO)N=O | active; inactive
70 | O=NN1CCCN(N=O)CC1 | active
71 | Cc1ccc(S(=O)(=O)NC(=O)NN2CCCCCC2)cc1 | inactive
72 | CS(=O)(=O)OCCCNCCCOS(C)(=O)=O | inactive; active

Row | Compound | outcome
73 | CC(C)(C)c1cc(O)ccc1O | inactive
74 | CN(C)[C@@H]1C(=O)C(C(N)=O)=C(O)[C@@]2(O)C(=O)C3=C(O)c4c(O)cccc4[C@@](C)(O)[C@H]3C[C@@H]12 | inactive
75 | NC(=S)Nc1cccc2ccccc12 | inactive
76 | C=CC(O)c1ccc(OC)cc1 (stereo not drawn) | active
77 | CCC(CC)[N+](=O)[O-] | active
78 | NC(=O)N/N=C/c1ccc([N+](=O)[O-])o1 | active
79 | OC[C@H]1O[C@H](O[C@]2(CCl)O[C@H](CCl)[C@@H](O)[C@@H]2O)[C@H](O)[C@@H](O)[C@H]1Cl | inactive
80 | C=CC#N | active
81 | CN(C)C(=S)S[Se](SC(=S)N(C)C)(SC(=S)N(C)C)SC(=S)N(C)C | inactive
82 | ClC(Cl)=C(Cl)Cl | active; inactive
83 | NC(=O)c1ccccc1C(N)=O | inactive
84 | CN(N=O)c1cccnc1 | inactive
85 | CN(N=O)C(=O)c1ccccc1 | active; inactive
86 | N[C@@H](CC(=O)O)C(=O)O | inactive; active
87 | c1ccc2occc2c1 | active; inactive
88 | FC(F)OC(Cl)C(F)(F)F (stereo not drawn) | inactive
89 | O=C(O)C(Cl)(Cl)Cl | active
90 | Nc1ccc(/C=C/c2ccc(N)cc2S(=O)(=O)O)c(S(=O)(=O)O)c1 | inactive; active
91 | Clc1ccc(-c2ccc(Cl)c(Cl)c2Cl)c(Cl)c1Cl | active
92 | Cc1cc(C)nc(-c2ccc([N+](=O)[O-])o2)n1 | active
93 | N[C@@H](CCC(=O)NNc1ccc(CO)cc1)C(=O)O | inactive
94 | Cc1ccc(-c2cc(C(F)(F)F)nn2-c2ccc(S(N)(=O)=O)cc2)cc1 | inactive
95 | Oc1ccccc1 | inactive
96 | ClCC(Cl)(Cl)Cl | active; inactive

Row | Compound | outcome
97 | CCOc1nc2cccc(C(=O)OC(C)OC(=O)OC3CCCCC3)c2n1Cc1ccc(-c2ccccc2-c2nn[nH]n2)cc1 (stereo not drawn) | inactive
98 | CNC(=O)Oc1cccc2ccccc12 | active
99 | CS(=O)(=O)c1ccc([C@@H](O)[C@@H](CO)NC(=O)C(Cl)Cl)cc1 | inactive
100 | C[C@](N)(Cc1ccc(O)c(O)c1)C(=O)O | inactive
101 | CNc1ncnc2nc[nH]c12 | inactive
102 | CN(N=O)C(=O)c1ccccc1C(=O)N(C)N=O | inactive
103 | CN1C(=O)C[C@@H](C(=O)N[C@@H](Cc2cnc[nH]2)C(=O)N2CCC[C@H]2C(N)=O)NC1=O | inactive; active
104 | CNC(=O)CSP(=S)(OC)OC | inactive
105 | C[C@]12C=CC(=O)C=C1CC[C@@H]1[C@@H]2C(=O)C[C@@]2(C)[C@H]1CC[C@]2(O)C(=O)CO | inactive
106 | FC(Cl)(Cl)Cl | inactive; active
107 | COc1cc(/C=C/C(=O)CC(=O)/C=C/c2ccc(O)c(OC)c2)ccc1O | inactive
108 | O=C(O)COc1cc(Cl)c(Cl)cc1Cl | inactive
109 | CCN(CC)N=O | active; inactive
110 | O=C1NC(=O)C(c2ccccc2)(c2ccccc2)N1 | active
111 | N#CSCc1ccccc1 | inactive
112 | CCN(N=O)C(N)=O | active; inactive
113 | CNC(=O)Oc1cc(C)c(N(C)C)c(C)c1 | inactive
114 | COC(=O)c1ccc(C(=O)OC)cc1 | inactive; active
115 | O=C1C=C2C(=CCOC2O)O1 (stereo not drawn) | inactive
116 | CC/C(=C(\c1ccccc1)c1ccc(OCCN(C)C)cc1)c1ccccc1 | active
117 | Cc1ccc(C)c(C)c1 | active
118 | O=[N+]([O-])c1ccc(-c2nc(NCCO)c3ccccc3n2)s1 | active
